Laboratory results taken from patent US20160030416A1, “METHODS OF TREATING B2-BRADYKININ RECEPTOR MEDIATED ANGIOEDEMA” (SHIRE HUMAN GENETIC THERAPIES, INC., priority 2013, published 2016).
Values after ≈ are worked out from the molar mass of the structure shown. Values joined by “and” are separate entries in the source; they are usually repeats but may differ in a detail not shown here. Equal values may be shown once. Read-outs that look alike come from different tables or passages of the source.

Legend:
[1] = Pharmacokinetics, single oral gavage, CD-1 mice; assay type: in vivo, female CD-1 mice; conditions: female, CD-1, mouse, plasma
Description: CFMQ (HGT3711) was administered to fasted female CD-1 mice (n=18/dose group) by a single oral gavage at 100, 250 and 450 mg/kg in a dose volume of 5 mL/kg in a spray-dried dispersion formulation (discussed below). Blood samples were taken via cardiocentesis or abdominal vein prior to administration and at 10, 30, 60 (1 hr), 120 (2 hr), 240 (4 hr) and 480 (8 hr) minutes post dose. Plasma concentrations of CFMQ (HGT3711) were determined by LC-MS/MS (liquid chromatography mass spectrometry) and concentrations below the limit of quantitation (3 ng/mL) were assigned a value of zero for pharmacokinetic analysis. Nominal dosing concentrations were used in all calculations.

[2] = Cross-over PK, IV and PO, cynomolgus monkeys; assay type: in vivo, male cynomolgus monkey
Description: A cross-over PK (pharmacokinetic) analysis was conducted in cynomolgus monkey. Two fasted male monkeys in each dose group received a single 1.0 mg/kg dose of CFMQ (HGT3711) by either IV (intravenous) or PO (oral) administration, with a 7-day washout period between each dose. The dose concentration was 1.0 mg/mL with a dose volume of 1.0 mL/kg. Blood samples were collected via the femoral vein at 0.083 (5 min), 0.25 (15 min), 0.5 (30 min), 1, 1.5, 2, 3, 4, 6, 8, 18 and 24 hours post-dose. Plasma concentrations of CFMQ (HGT3711) were determined by LC-MS/MS and concentrations below the limit of quantitation (2.5 ng/mL) were assigned a value of zero for pharmacokinetic analysis. Following oral administration of CFMQ (1 mg/kg), the concentration of CFMQ in plasma was below the limit of quantitation (BLQ=<2.5 ng/ml) at each sampling time point, preventing assessment of pharmacokinetic properties of CFMQ after oral administration in monkeys in this study. Table 11 summarizes the average PK properties for IV and PO dosed groups.

[3] = molecular target: T1, BZD (peripheral) (Rattus norvegicus, UniProt P16257); test: Off-target receptor binding: BZD (peripheral)
T1 construct: from tissue
Description: To determine the affinity to the B2-bradykinin receptor, CFMQ was compared to a diverse set of receptors and reference agents in an in vitro assay using cells from rat heart, urinary bladder, cerebral cortex, as well as human recombinant cells (CHO and HEK 293) and other cell lines. Each assay included a ligand at a specific concentration (concentration ranging from 0.007-10 nM), in addition to a non-specific ligand (concentration ranging from […]) for incubation periods ranging from 15 minutes to 6 hours at 4°-37° C. The specific binding to the receptors was defined as the difference between the total binding and the nonspecific binding, determined in the presence of an excess of unlabeled CFMQ. The concentration causing a half-maximal inhibition of control specific binding (IC50 values) and inhibition constants (Ki) were determined, and each reference compound was within the accepted limits of the historic average (±0.5 log units).

[4] = tested on: plasma extravasation; test: Plasma extravasation (Evans blue in bladder), oral, C1-INH knockout mice; assay type: in vivo, C1-INH-KO mice
[5] = Solubility of CFMQ in vehicles; assay type: physicochemical
Description: The physicochemical properties of 1-((4-Chloro-3-(((4-(4-fluoro-1H-pyrazol-1-yl)-2-methylquinolin-8-yl)oxy)methyl)-6-methylpyridin-2-yl)methyl)-2-oxo-1,2-dihydropyridine-3-carbonitrile (CFMQ) were determined using standard methods. CFMQ was a free base with a molecular weight of 514.9 Da and was a nonhygroscopic, crystalline powder with a melting point of about 214° C.

[6] = Plasma kinetics, intravenous, CD-1 mice; assay type: in vivo, female CD-1 mice
Description: CFMQ (HGT3711) was administered to fasted female CD-1 mice by a single intravenous injection at 1.0 mg/kg, formulated in 100% PEG200. Blood samples were taken via cardiac puncture prior to administration and at 0.083 (5 min), 0.25 (15 min), 0.50 (30 min), 1, 2, 4, and 8 hours post dose. Plasma concentrations of CFMQ (HGT3711) were determined by LC-MS/MS and concentrations below the limit of quantitation (BLOQ=<1 ng/ml) were assigned a value of zero for pharmacokinetic analysis. Nominal dosing concentrations were used in all calculations.

[7] = 100 mg/kg, read-out: Average Concentration of HGT3711
[8] = 250 mg/kg, read-out: Average Concentration of HGT3711
[9] = 450 mg/kg, read-out: Average Concentration of HGT3711
[10] = 450 mg/kg, n = 2, read-out: Average Concentration of HGT3711
[11] = male, cynomolgus monkey, plasma, IV (1 mg/kg), Mean
[12] = female, CD-1, mouse, plasma, IV 1 mg/kg
[13] = female, CD-1, mouse, plasma, IV 1 mg/kg, extrapolated to t = 0

Cc1cc(Cl)c(COc2cccc3c(-n4cc(F)cn4)cc(C)nc23)c(Cn2cccc(C#N)c2=O)n1 [CFMQ, 1-((4-Chloro-3-(((4-(4-fluoro-1H-pyrazol-1-yl)-2-methylquinolin-8-yl)oxy)methyl)-6-methylpyridin-2-yl)methyl)-2-oxo-1,2-dihydropyridine-3-carbonitrile]
AUC(0-inf) ([1]; 100 mg/kg): 10500 ng·h/mL | AUC(0-t) ([1]; 100 mg/kg): 10500 ng·h/mL | Cmax ([1]; 100 mg/kg): 5300 ng/mL | concentration at 10 min [1, 7]: 5300 ng/mL | concentration at 30 min [1, 7]: 4100 ng/mL | concentration at 60 min [1, 7]: 5170 ng/mL | concentration at 120 min [1, 7]: 2200 ng/mL | concentration at 240 min [1, 7]: 78 ng/mL | concentration at 480 min [1, 7]: 18 ng/mL | AUC(0-inf) ([1]; 250 mg/kg): 24500 ng·h/mL | AUC(0-t) ([1]; 250 mg/kg): 24400 ng·h/mL | Cmax ([1]; 250 mg/kg): 13300 ng/mL | concentration at 10 min [1, 8]: 6250 ng/mL | concentration at 30 min [1, 8]: 13300 ng/mL | concentration at 60 min [1, 8]: 10400 ng/mL | concentration at 120 min [1, 8]: 4570 ng/mL | concentration at 240 min [1, 8]: 854 ng/mL | concentration at 480 min [1, 8]: 45 ng/mL | AUC(0-inf) ([1]; 450 mg/kg): 40900 ng·h/mL | AUC(0-t) ([1]; 450 mg/kg): 40800 ng·h/mL | Cmax ([1]; 450 mg/kg): 15800 ng/mL | concentration at 10 min [1, 9]: 11600 ng/mL | concentration at 30 min [1, 9]: 14600 ng/mL | concentration at 60 min [1, 10]: 15800 ng/mL | concentration at 120 min [1, 10]: 6440 ng/mL | concentration at 240 min [1, 9]: 3370 ng/mL | concentration at 480 min [1, 9]: 88 ng/mL | Vz as fold of the total body water (0.69 L/kg) ([2]; IV 1 mg/kg): 4.32 fold | systemic clearance as % of monkey hepatic blood flow (2.62 L/hr/kg) ([2]; IV 1 mg/kg): 57.63% | ACU(0-∞) ([2]; IV (1 mg/kg), Mean): 693.99 μg/L*hr | CLz ([2]; IV (1 mg/kg), Mean, 1 mg/kg): 25.2 ± 6.83 mL/min/kg and 25.2 mL/min/kg | t1/2z ([2]; IV (1 mg/kg), Mean, 1 mg/kg): 84 ± 14.4 min and 84 min | AUC(0-t) [2, 11]: 679 ng·h/mL | Cmax [2, 11]: 410 ng/mL | Tmax [2, 11]: 13.8 min | MRT inf ([2]; male, cynomolgus monkey, plasma, IV (1 mg/kg), Mean, read-out: MRT(0-∞)): 106 min | Cmax ([2]; male, cynomolgus, cynomolgus monkey, plasma, IV (1 mg/kg), Mean): 410 ± 107 ng/mL | Vd ([2]; male, cynomolgus, cynomolgus monkey, plasma, IV (1 mg/kg), Mean, read-out: Vz): 2.98 ± 0.55 L/kg | concentration of CFMQ in plasma ([2]; oral 1 mg/kg, at each sampling time point (below limit of quantitation)): < 2.5 ng/mL | oral bioavailability ([2]; oral 1 mg/kg, monkey): no bioavailability | IC50 [3]: 1400 nM | Ki [3]: 1200 nM | nH [3]: 1.7 | inhibition at 10 µM ([3]; CFMQ at 10 μM): 93% | efficacy compared with 0.4 mg/kg SC Firazyr ([4]; oral 3.0 mg/kg): nearly as effective | inhibition of EB accumulation in the bladder ([4]; oral 10 mg/kg): ~100% | inhibition of EB accumulation in the bladder ([4]; oral 30 mg/kg): ~100% | solubility ([5]; 0.1 N HCl, simulated gastric fluid, HCl 0.1N, pH 1.3): 320 µg/mL (≈ 621 µM) | solubility ([5]; Labrasol (glyceryl and polyethylene glycol esters), aqueous with cosolvent or surfactant or cyclodextrin): 1430 µg/mL (≈ 2780 µM) | solubility ([5]; NaOH 0.1N, pH 12.8, aqueous buffer): < 10 µg/mL | solubility ([5]; PEG400 (polyethylene glycol 400), organic solvent or mixture): 2370 µg/mL (≈ 4600 µM) | solubility ([5]; Tween 20 (polyoxyethylene (20) sorbitan monolaurate), aqueous with cosolvent or surfactant or cyclodextrin): 870 µg/mL (≈ 1690 µM) | solubility ([5]; Tween 80 (polyoxyethylene (80) sorbitan monolaurate), aqueous with cosolvent or surfactant or cyclodextrin): 3500 µg/mL (≈ 6800 µM) | solubility ([5]; citrate/NaOH buffer, aqueous buffer, Citrate/NaOH pH 2): 20 µg/mL (≈ 38.8 µM) | solubility ([5]; citrate/NaOH buffer, aqueous buffer, Citrate/NaOH pH 5): < 10 µg/mL | solubility ([5]; ethanol, organic solvent or mixture): 170 µg/mL (≈ 330 µM) | solubility ([5]; glycerol, organic solvent or mixture): 10 µg/mL (≈ 19.4 µM) | solubility ([5]; olive oil, oil or lipid): < 10 µg/mL | solubility ([5]; organic solvent or mixture, Acetic acid, glacial): 19900 µg/mL (≈ 38600 µM) | solubility ([5]; phosphate buffer, pH 7, aqueous buffer): < 10 µg/mL | solubility ([5]; propylene glycol, organic solvent or mixture): 100 µg/mL (≈ 194 µM) | solubility ([5]; water): < 10 µg/mL | plasma concentration ([6]; IV 1 mg/kg, by 4 hours post-dose, BLOQ=<1 ng/ml): below the BLOQ | adverse reactions ([6]; IV 1.0 mg/kg, mice): No adverse reactions were observed | AUC(0-inf) [6, 12]: 70.9 ng·h/mL | clearance [6, 12]: 235 mL/min/kg | half-life [6, 12]: 33.6 min | concentration at 0.083 hr ([6]; female, CD-1, mouse, plasma, IV 1 mg/kg, 0.083 hr, read-out: Average Concentration of HGT3711): 162 ng/mL | concentration at 0.25 hr ([6]; female, CD-1, mouse, plasma, IV 1 mg/kg, 0.25 hr, read-out: Average Concentration of HGT3711): 92.9 ng/mL | concentration at 0.5 hr ([6]; female, CD-1, mouse, plasma, IV 1 mg/kg, 0.50 hr, read-out: Average Concentration of HGT3711): 22.4 ng/mL | concentration at 1 hr ([6]; female, CD-1, mouse, plasma, IV 1 mg/kg, 1.0 hr, read-out: Average Concentration of HGT3711): 12.6 ng/mL | concentration at 2 hr ([6]; female, CD-1, mouse, plasma, IV 1 mg/kg, 2.0 hr, read-out: Average Concentration of HGT3711): 3.48 ng/mL | C0 [6, 13]: 214 ng/mL | Tmax [6, 13]: 0 h | AUC(0-t) ([6]; female, CD-1, mouse, plasma, IV 1 mg/kg, read-out: AUClast ± SE): 68.1 ng·h/mL | Vd ([6]; female, CD-1, mouse, plasma, IV 1 mg/kg, read-out: Vss): 6.3 L/kg
